Measurements as given in patent US20260327221A1, “INHIBITORS OF CYCLIC GMP-AMP SYNTHASE AND USES THEREOF” (Ventus Therapeutics U.S., Inc., priority 2023, published 2026).
pIC50: −log10 of the molar value.

Target: hcGAS (Homo sapiens, UniProt Q8N884)
Assay: hcGAS LCMS assay (direct measurement of cGAMP production by LC/MS)
Assay type: biochemical
Conditions: 4 h incubation with enzyme and substrates; cGAMP production by LC/MS; class symbols; read-out: hcGAS LCMS IC50
Description: cGAS catalyzes the cyclization of ATP and GTP to produce cGAMP, which is the activating ligand of STING. Human cGAS (hcGAS) inhibition can thus be quantified by measuring how much cGAMP is formed either indirectly, by monitoring ATP-depletion as in the hcGAS Kinase-Glo assay (as described below), or directly, such as using the hcGAS LCMS assay (as described below).
2. hGAS LCMS Assay Conditions
Compounds were tested for their hcGAS inhibition activity using direct measurement of cGAMP production by LC/MS. Briefly, compounds were incubated with enzyme and substrates for 4 hours (see Table C), before the reaction was stopped with 3 volumes of 70/30 Acetonitrile/H2O mix containing 0.15 uM cGAMP-^13C10^15N5 as internal standard and mixed for 5 mmn. After centrifugation (3700 rpm, […], […]), 100 uL of each reaction was collected and mixed to equal volume of acetonitrile (MeCN). Samples were then analyzed on Qexactive (Column: XBridge BEH Amide Column, 130 Å, 3.5 μm, 3 mm×50 mm. Mobile phase A: 10 mM Ammonium acetate in 95/5 H2O/MeCN (0.5% DMSO), Mobile phase B: MeCN (0.5% DMSO).
The results of the assay, expressed as IC50 values, are reported in Table D with the following designations: A represents an IC50 value <0.005 μM (with A1 representing an IC50 value <0.0005 μM, A2 representing an IC50 value ≥0.0005 μM and <0.001 μM, and A3 representing an IC50 value ≥0.001 μM and <0.005 μM); B represents an IC50 value ≥0.005 μM and <0.02 μM; C represents an IC50 value ≥0.02 μM and <0.06 μM; and D represents an IC50 value ≥0.06 μM.

Chain of hcGAS (Q8N884 whole entry): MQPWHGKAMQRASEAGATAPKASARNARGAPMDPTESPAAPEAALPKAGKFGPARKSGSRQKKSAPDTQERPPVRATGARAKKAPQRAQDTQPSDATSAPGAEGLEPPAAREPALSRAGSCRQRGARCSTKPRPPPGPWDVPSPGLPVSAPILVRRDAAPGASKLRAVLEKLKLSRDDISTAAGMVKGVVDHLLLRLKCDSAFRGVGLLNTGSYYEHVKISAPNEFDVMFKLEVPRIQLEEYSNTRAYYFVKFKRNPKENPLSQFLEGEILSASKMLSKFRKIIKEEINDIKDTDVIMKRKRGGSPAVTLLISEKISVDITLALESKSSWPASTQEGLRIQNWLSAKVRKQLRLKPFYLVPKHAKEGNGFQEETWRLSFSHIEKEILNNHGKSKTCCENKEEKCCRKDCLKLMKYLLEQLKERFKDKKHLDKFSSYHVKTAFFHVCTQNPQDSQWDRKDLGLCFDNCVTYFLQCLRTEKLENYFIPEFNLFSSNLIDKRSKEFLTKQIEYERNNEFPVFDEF

| SMILES | pIC50 |
| --- | --- |
| COc1cccc(OC)c1-c1cc(C(=O)Nc2nnc(-n3nccc3N)s2)oc(=O)c1O[C@H](C)CO (single isomer, unassigned) [Compound 55B*] | 9.00 to 9.30 |
| COc1cccc(OC)c1-c1cc(C(=O)Nc2nnc(-n3nccc3N)s2)oc(=O)c1O[C@H]1CCC[C@@H]1O (single isomer, unassigned) [71A*] | 9.00 to 9.30 |
| COc1cccc(OC)c1-c1cc(C(=O)Nc2nnc(-n3nccc3N)s2)oc(=O)c1OCC(C)(C)CO [Compound 36, N-(5-(5-amino-1H-pyrazol-1-yl)-1,3,4-thiadiazol-2-yl)-4-(2,6-dimethoxyphenyl)-3-(3-hydroxy-2,2-dimethylpropoxy)-2-oxo-2H-pyran-6-carboxamide] | 9.00 to 9.30 |
| COCCOc1c(-c2c(C#N)cccc2OC)cc(C(=O)Nc2nnc(-n3nccc3N)s2)oc1=O [Compound 8, N-(5-(5-amino-1H-pyrazol-1-yl)-1,3,4-thiadiazol-2-yl)-4-(2-cyano-6-methoxyphenyl)-3-(2-methoxyethoxy)-2-oxo-2H-pyran-6-carboxamide] | 9.00 to 9.30 |
| COc1c(-c2nn(C)cc2C#N)cc(C(=O)Nc2nnc(-n3nccc3C)s2)oc1=O [Compound 31, 4-(4-cyano-1-methyl-1H-pyrazol-3-yl)-3-methoxy-N-(5-(5-methyl-1H-pyrazol-1-yl)-1,3,4-thiadiazol-2-yl)-2-oxo-2H-pyran-6-carboxamide] | 7.70 to 8.30 |
| COc1cccnc1-c1cc(C(=O)Nc2nnc(-n3nccc3N)s2)oc(=O)c1O[C@H]1CC[C@H](O)C1 (single isomer, unassigned) [112B*] | 8.30 to 9.00 |
| COc1cccc(OC)c1-c1cc(C(=O)Nc2nnc(-n3nccc3N)s2)oc(=O)c1O[C@@H](CO)C1CC1 [106B*, (R)-N-(5-(5-amino-1H-pyrazol-1-yl)-1,3,4-thiadiazol-2-yl)-3-(1-cyclopropyl-2-hydroxyethoxy)-4-(2,6-dimethoxyphenyl)-2-oxo-2H-pyran-6-carboxamide] | 8.30 to 9.00 |
| COc1cccc(OC)c1-c1cc(C(=O)Nc2nnc(-n3nccc3N)s2)oc(=O)c1OCCN1CCOCC1 [Compound 22, N-(5-(5-amino-1H-pyrazol-1-yl)-1,3,4-thiadiazol-2-yl)-4-(2,6-dimethoxyphenyl)-3-(2-morpholinoethoxy)-2-oxo-2H-pyran-6-carboxamide] | 8.30 to 9.00 |
| COc1cccc(OC)c1-c1cc(C(=O)Nc2nnc(-n3nccc3N)s2)oc(=O)c1OCC1(OC)CC1 [Compound 42, N-(5-(5-amino-1H-pyrazol-1-yl)-1,3,4-thiadiazol-2-yl)-4-(2,6-dimethoxyphenyl)-3-((1-methoxycyclopropyl)methoxy)-2-oxo-2H-pyran-6-carboxamide] | 9.00 to 9.30 |
| COCCOc1c(-c2c(C#N)cccc2COC)cc(C(=O)Nc2nnc(-n3nccc3N)s2)oc1=O [Compound 39, N-(5-(5-amino-1H-pyrazol-1-yl)-1,3,4-thiadiazol-2-yl)-4-(2-cyano-6-(methoxymethyl)phenyl)-3-(2-methoxyethoxy)-2-oxo-2H-pyran-6-carboxamide] | 8.30 to 9.00 |
| COc1cccc(OC)c1-c1cc(C(=O)Nc2nnc(-n3nccc3N)s2)oc(=O)c1O[C@@H]1CC[C@H](O)C1 (relative stereo) [64C*/D*] | 9.00 to 9.30 |
| COCCOc1c(-c2ncccc2C#N)cc(C(=O)Nc2nnc(-n3nccc3N)s2)oc1=O [Compound 9, N-(5-(5-amino-1H-pyrazol-1-yl)-1,3,4-thiadiazol-2-yl)-4-(3-cyanopyridin-2-yl)-3-(2-methoxyethoxy)-2-oxo-2H-pyran-6-carboxamide] | 9.00 to 9.30 |
| COC[C@@H](CO)COc1c(-c2c(OC)cccc2OC)cc(C(=O)Nc2nnc(-n3nccc3N)s2)oc1=O [92A*, (R)-N-(5-(5-amino-1H-pyrazol-1-yl)-1,3,4-thiadiazol-2-yl)-4-(2,6-dimethoxyphenyl)-3-(3-hydroxy-2-(methoxymethyl)propoxy)-2-oxo-2H-pyran-6-carboxamide] | 9.00 to 9.30 |
| COc1cccnc1-c1cc(C(=O)Nc2nnc(-n3nccc3N)s2)oc(=O)c1OCC(C)(C)CO [Compound 33, N-(5-(5-amino-1H-pyrazol-1-yl)-1,3,4-thiadiazol-2-yl)-3-(3-hydroxy-2,2-dimethylpropoxy)-4-(3-methoxypyridin-2-yl)-2-oxo-2H-pyran-6-carboxamide] | 8.30 to 9.00 |
| COC[C@@H](C)Oc1c(-c2c(OC)cccc2OC)cc(C(=O)Nc2nnc(-n3nccc3N)s2)oc1=O [Compound 47B, (R)—N-(5-(5-amino-1H-pyrazol-1-yl)-1,3,4-thiadiazol-2-yl)-4-(2,6-dimethoxyphenyl)-3-((1-methoxypropan-2-yl)oxy)-2-oxo-2H-pyran-6-carboxamide] | > 9.30 |
| COc1cccc(OC)c1-c1cc(C(=O)Nc2nnc(-n3nccc3N)s2)oc(=O)c1OCCCN1CCSCC1 [Compound 88, N-(5-(5-amino-1H-pyrazol-1-yl)-1,3,4-thiadiazol-2-yl)-4-(2,6-dimethoxyphenyl)-2-oxo-3-(3-thiomorpholinopropoxy)-2H-pyran-6-carboxamide] | 9.00 to 9.30 |
| COc1cccnc1-c1cc(C(=O)Nc2nnc(-n3nccc3N)s2)oc(=O)c1O[C@H]1CCC[C@@H](OC)C1 (single isomer, unassigned) [113C*] | ≤ 7.22 |
| COC[C@H](CO)Oc1c(-c2c(OC)cccc2OC)cc(C(=O)Nc2nnc(-n3nccc3N)s2)oc1=O [Compound 62A*, (S)—N-(5-(5-amino-1H-pyrazol-1-yl)-1,3,4-thiadiazol-2-yl)-4-(2,6-dimethoxyphenyl)-3-((1-hydroxy-3-methoxypropan-2-yl)oxy)-2-oxo-2H-pyran-6-carboxamide] | 9.00 to 9.30 |
| COCCOc1c(-c2c(C#N)cccc2OC)cc(C(=O)Nc2nnc(-n3nccc3C(F)F)s2)oc1=O [Compound 23, 4-(2-cyano-6-methoxyphenyl)-N-(5-(5-(difluoromethyl)-1H-pyrazol-1-yl)-1,3,4-thiadiazol-2-yl)-3-(2-methoxyethoxy)-2-oxo-2H-pyran-6-carboxamide] | 9.00 to 9.30 |
| COc1cccc(Cl)c1-c1cc(C(=O)Nc2nnc(-n3nccc3N)s2)oc(=O)c1OCCO (single isomer, unassigned) [Compound 34B*, (Ra)—N-(5-(5-amino-1H-pyrazol-1-yl)-1,3,4-thiadiazol-2-yl)-4-(2-chloro-6-methoxyphenyl)-3-(2-hydroxyethoxy)-2-oxo-2H-pyran-6-carboxamide] | > 9.30 |
| COc1cccc(C#N)c1-c1cc(C(=O)Nc2nnc(-n3nccc3Cl)s2)oc(=O)c1OCCO [Compound 26, N-(5-(5-chloro-1H-pyrazol-1-yl)-1,3,4-thiadiazol-2-yl)-4-(2-cyano-6-methoxyphenyl)-3-(2-hydroxyethoxy)-2-oxo-2H-pyran-6-carboxamide] | > 9.30 |
| COc1c(-c2ccccc2P(C)(C)=O)cc(C(=O)Nc2nnc(-n3nccc3C)s2)oc1=O [Compound 3, 4-(2-(dimethylphosphoryl)phenyl)-3-methoxy-N-(5-(5-methyl-1H-pyrazol-1-yl)-1,3,4-thiadiazol-2-yl)-2-oxo-2H-pyran-6-carboxamide] | 7.22 to 7.70 |
| COCCOc1c(-c2nc(OC)ccc2OC)cc(C(=O)Nc2nnc(-n3nccc3N)s2)oc1=O [Compound 49, N-(5-(5-amino-1H-pyrazol-1-yl)-1,3,4-thiadiazol-2-yl)-4-(3,6-dimethoxypyridin-2-yl)-3-(2-methoxyethoxy)-2-oxo-2H-pyran-6-carboxamide] | 8.30 to 9.00 |
| COc1cccnc1-c1cc(C(=O)Nc2nnc(-n3nccc3N)s2)oc(=O)c1O[C@@H]1CC[C@@H](O)C1 (single isomer, unassigned) [112A*] | 8.30 to 9.00 |
| COc1cccc(OC)c1-c1cc(C(=O)Nc2nnc(-n3nccc3N)s2)oc(=O)c1OCC1(OC)CCC(O)CC1 (centres unmarked) [99A*/99B*] | 8.30 to 9.00 |
| COCCOc1c(-c2c(OC)cccc2OC)cc(C(=O)Nc2nnc(-c3c(Cl)ccn3C)s2)oc1=O [Compound 5, N-(5-(3-chloro-1-methyl-1H-pyrrol-2-yl)-1,3,4-thiadiazol-2-yl)-4-(2,6-dimethoxyphenyl)-3-(2-methoxyethoxy)-2-oxo-2H-pyran-6-carboxamide] | > 9.30 |
| COc1cccc(OC)c1-c1cc(C(=O)Nc2nnc(-n3nccc3N)s2)oc(=O)c1OC[C@@H](CO)OC [38B*, (R)-N-(5-(5-amino-1H-pyrazol-1-yl)-1,3,4-thiadiazol-2-yl)-4-(2,6-dimethoxyphenyl)-3-(3-hydroxy-2-methoxypropoxy)-2-oxo-2H-pyran-6-carboxamide] | 9.00 to 9.30 |
| COc1cccnc1-c1cc(C(=O)Nc2nnc(-n3nccc3N)s2)oc(=O)c1O[C@H](C)CO [Compound 107B, (R)-N-(5-(5-amino-1H-pyrazol-1-yl)-1,3,4-thiadiazol-2-yl)-3-((1-hydroxypropan-2-yl)oxy)-4-(3-methoxypyridin-2-yl)-2-oxo-2H-pyran-6-carboxamide] | 9.00 to 9.30 |
| COc1cccc(OC)c1-c1cc(C(=O)Nc2nnc(-n3nccc3N)s2)oc(=O)c1OC[C@H]1COCCO1 (single isomer, unassigned) [Compound 43B] | 9.00 to 9.30 |
